Assay results published in patent publication US6534524B1, “Indazole compounds and pharmaceutical compositions for inhibiting protein kinases, and methods for their use” (Agouron Pharmaceuticals, Inc., priority 1999, dated 2003).
Read-outs that look alike come from different tables or passages of the source.

Tested on: human umbilical vein endothelial cells (HUVEC)
Test: HUVEC proliferation assay (VEGF-stimulated, MTT);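 on % inhibition of the proliferation of HUVEC: relative to VEGF-stimulated control minus starvation-medium baseline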
Type: cell-based
Details: for % inhibition: Library III, HUVEC proliferation, nominal concentration of 0.5 nM; for % inhibition / % inhibition of the proliferation of HUVEC: crude reaction mixtures; for IC50: + albumin, read-out: HUVEC + albumin IC50
[1] = Library I, Y = CO, nominal concentration of 10 nM
[2] = Library I, Y = NH, nominal concentration of 10 nM
[3] = Library I, Y = O, nominal concentration of 10 nM
[4] = Library II, Y=S, 0.5 mM (column head; text: nominal 0.5 nM)
[5] = Library II, Y=S, 2 mM (column head; text: nominal 2 nM)

## CN(C)c1ccc(NC(=O)c2ccccc2Sc2ccc3c(/C=C/c4ccccn4)n[nH]c3c2)cc1
  % inhibition: 18%

## O=C(Nc1ccc(CCO)cc1)c1ccccc1Sc1ccc2c(/C=C/c3ccccn3)n[nH]c2c1
  % inhibition: 10%

## CC1C(=O)NCCN1C(=O)c1ccc2c(-c3nc4ccccc4[nH]3)n[nH]c2c1 (centres unmarked)
[1]
  % inhibition of the proliferation of HUVEC: 12%
[2]
  % inhibition of the proliferation of HUVEC: −3%
[3]
  % inhibition of the proliferation of HUVEC: 40%

## Cc1cc(C)nc(NC(=O)c2ccccc2Sc2ccc3c(/C=C/c4ccccn4)n[nH]c3c2)c1
  % inhibition: 3%

## O=C(NCc1ccc(F)cc1F)c1ccccc1Sc1ccc2c(/C=C/c3ccccn3)n[nH]c2c1
  % inhibition: 11%

## Cc1ccc(NC(=O)c2ccccc2Sc2ccc3c(/C=C/c4ccccn4)n[nH]c3c2)c(C)c1
  % inhibition: 13%

## N#CC(NC(=O)c1ccccc1Sc1ccc2c(/C=C/c3ccccn3)n[nH]c2c1)c1ccc(F)cc1 (centres unmarked)
  % inhibition: −20%

## O=C(Nc1ccc2c(c1)C(=O)NC2=O)c1ccccc1Sc1ccc2c(/C=C/c3ccccn3)n[nH]c2c1
  % inhibition: −31%

## O=C(NC1CC1)c1ccccc1Sc1ccc2c(/C=C/c3ccccn3)n[nH]c2c1 [drawing 1069]
  % inhibition: 29%

## O=C(NCCCCCCO)c1ccccc1Sc1ccc2c(/C=C/c3ccccn3)n[nH]c2c1
  % inhibition: −20%

## O=C(NCC1OCCO1)c1ccccc1Sc1ccc2c(/C=C/c3ccccn3)n[nH]c2c1
[4]
  % inhibition of the proliferation of HUVEC: 35%
[5]
  % inhibition of the proliferation of HUVEC: 63%

## O=C(NCc1cccc2ccccc12)c1ccccc1Sc1ccc2c(/C=C/c3ccccn3)n[nH]c2c1
  % inhibition: 5%

## CSCCC(CO)NC(=O)c1ccccc1Sc1ccc2c(/C=C/c3ccccn3)n[nH]c2c1 (centres unmarked)
  % inhibition: −45%

## O=C(c1ccc2c(-c3nc4ccccc4[nH]3)n[nH]c2c1)N1CCOCC1
[1]
  % inhibition of the proliferation of HUVEC: 10%
[2]
  % inhibition of the proliferation of HUVEC: −7%
[3]
  % inhibition of the proliferation of HUVEC: 59%

## O=C(NNc1ccccn1)c1ccccc1Sc1ccc2c(/C=C/c3ccccn3)n[nH]c2c1 [drawing 760]
[4]
  % inhibition of the proliferation of HUVEC: 32%
[5]
  % inhibition of the proliferation of HUVEC: 92%

## COC(CCCNC(=O)c1ccccc1Sc1ccc2c(/C=C/c3ccccn3)n[nH]c2c1)OC
  % inhibition: 9%

## 6-(3-Benzamidobenzoyl)-3-E-[N-(4H-1,2,4-triazol-4-yl)iminomethyl]-1H-indazole [Example 42(e)]
  IC50: 95 nM

## O=C(NCCc1ccc(Cl)cc1)c1ccccc1Sc1ccc2c(/C=C/c3ccccn3)n[nH]c2c1
  % inhibition: 0%

## Cc1ccc(CCNC(=O)c2ccccc2Sc2ccc3c(/C=C/c4ccccn4)n[nH]c3c2)cc1
  % inhibition: −1%

## CN(CC#N)C(=O)c1ccc2c(-c3nc4ccccc4[nH]3)n[nH]c2c1
[1]
  % inhibition of the proliferation of HUVEC: 56%
[2]
  % inhibition of the proliferation of HUVEC: −17%
[3]
  % inhibition of the proliferation of HUVEC: 17%

## O=C(Nc1ccc(O)c(F)c1)c1ccccc1Sc1ccc2c(/C=C/c3ccccn3)n[nH]c2c1
  % inhibition: −10%

## O=C(Nc1ccc(C(F)(F)F)cc1)c1ccccc1Sc1ccc2c(/C=C/c3ccccn3)n[nH]c2c1
  % inhibition: −3%

## Cc1ccc(CNC(=O)c2ccccc2Sc2ccc3c(/C=C/c4ccccn4)n[nH]c3c2)cc1
[4]
  % inhibition of the proliferation of HUVEC: 20%
[5]
  % inhibition of the proliferation of HUVEC: 92%

## Cc1c(O)ccc(NC(=O)c2ccccc2Sc2ccc3c(/C=C/c4ccccn4)n[nH]c3c2)c1C
  % inhibition: 4%

## CC(C)=CCC/C(C)=C/CNC(=O)c1ccccc1Sc1ccc2c(/C=C/c3ccccn3)n[nH]c2c1
  % inhibition: −22%

## O=C(Nc1ccc2[nH]c(=O)[nH]c2c1)c1ccccc1Sc1ccc2c(/C=C/c3ccccn3)n[nH]c2c1
  % inhibition: 15%

## COC(OC)C(C)NC(=O)c1ccccc1Sc1ccc2c(/C=C/c3ccccn3)n[nH]c2c1 (centres unmarked)
  % inhibition: 0%

## C=CCN1CCN(C(=O)c2ccc3c(-c4nc5ccccc5[nH]4)n[nH]c3c2)CC1
[1]
  % inhibition of the proliferation of HUVEC: 39%
[2]
  % inhibition of the proliferation of HUVEC: −4%

## COCCNC(=O)c1ccccc1Sc1ccc2c(/C=C/c3ccccn3)n[nH]c2c1
[4]
  % inhibition of the proliferation of HUVEC: 21%
[5]
  % inhibition of the proliferation of HUVEC: 60%

## O=C(Nc1ccccc1CO)c1ccccc1Sc1ccc2c(/C=C/c3ccccn3)n[nH]c2c1
  % inhibition: 0%

## CN1CCN(NC(=O)c2ccccc2Sc2ccc3c(/C=C/c4ccccn4)n[nH]c3c2)CC1
[4]
  % inhibition of the proliferation of HUVEC: 19%
[5]
  % inhibition of the proliferation of HUVEC: −1%

## CC1CCCC(NC(=O)c2ccccc2Sc2ccc3c(/C=C/c4ccccn4)n[nH]c3c2)C1 (centres unmarked)
[4]
  % inhibition of the proliferation of HUVEC: 69%
[5]
  % inhibition of the proliferation of HUVEC: 59%

## CCCCC(CO)NC(=O)c1ccccc1Sc1ccc2c(/C=C/c3ccccn3)n[nH]c2c1 (centres unmarked)
  % inhibition: −28%

## O=C(NCc1ccc(F)cc1)c1ccccc1Sc1ccc2c(/C=C/c3ccccn3)n[nH]c2c1
  % inhibition: 57%

## O=C(NCCc1c[nH]c2ccccc12)c1ccccc1Sc1ccc2c(/C=C/c3ccccn3)n[nH]c2c1
  % inhibition: 18%

## CC(NC(=O)c1ccccc1Sc1ccc2c(/C=C/c3ccccn3)n[nH]c2c1)c1ccccc1 (centres unmarked)
[4]
  % inhibition of the proliferation of HUVEC: 30%
[5]
  % inhibition of the proliferation of HUVEC: 94%

## NC(=O)c1cccc(NC(=O)c2ccccc2Sc2ccc3c(/C=C/c4ccccn4)n[nH]c3c2)c1
  % inhibition: 4%

## Cc1cccc2sc(NC(=O)c3ccccc3Sc3ccc4c(/C=C/c5ccccn5)n[nH]c4c3)nc12
  % inhibition: −13%

## O=C(c1ccc2c(-c3nc4ccccc4[nH]3)n[nH]c2c1)N1CCN(C(=O)c2ccco2)CC1
[1]
  % inhibition of the proliferation of HUVEC: −20%
[2]
  % inhibition of the proliferation of HUVEC: 6%
[3]
  % inhibition of the proliferation of HUVEC: 25%

## Cc1ccnc(NC(=O)c2ccccc2Sc2ccc3c(/C=C/c4ccccn4)n[nH]c3c2)c1
  % inhibition: −6%

## O=C(Nc1cccc2c(O)cccc12)c1ccccc1Sc1ccc2c(/C=C/c3ccccn3)n[nH]c2c1
  % inhibition: 4%

## Cc1ccc2ccccc2c1NC(=O)c1ccccc1Sc1ccc2c(/C=C/c3ccccn3)n[nH]c2c1
  % inhibition: −19%

## COc1ccc(NC(=O)c2ccc3c(-c4nc5ccccc5[nH]4)n[nH]c3c2)cc1O [drawing 607]
[4]
  % inhibition of the proliferation of HUVEC: 19%
[5]
  % inhibition of the proliferation of HUVEC: 89%

## Cc1ccc(CNC(=O)c2ccccc2Sc2ccc3c(/C=C/c4ccccn4)n[nH]c3c2)o1 [drawing 763]
[4]
  % inhibition of the proliferation of HUVEC: 56%
[5]
  % inhibition of the proliferation of HUVEC: 96%

## O=C(NC1CCCCC1)c1ccccc1Sc1ccc2c(/C=C/c3ccccn3)n[nH]c2c1
[4]
  % inhibition of the proliferation of HUVEC: 12%
[5]
  % inhibition of the proliferation of HUVEC: 76%

## O=C(NC1CCS(=O)(=O)C1)c1ccccc1Sc1ccc2c(/C=C/c3ccccn3)n[nH]c2c1 (centres unmarked)
[4]
  % inhibition of the proliferation of HUVEC: 27%
[5]
  % inhibition of the proliferation of HUVEC: 2%

## CCc1ccnc(NC(=O)c2ccccc2Sc2ccc3c(/C=C/c4ccccn4)n[nH]c3c2)c1
  % inhibition: 20%

## O=C(Nc1ccc2c(O)cccc2c1)c1ccccc1Sc1ccc2c(/C=C/c3ccccn3)n[nH]c2c1
  % inhibition: −26%

## O=C(N/N=C/C(F)(F)F)c1ccccc1Sc1ccc2c(/C=C/c3ccccn3)n[nH]c2c1 [Example 36(c)]
Homo sapiens, HUVEC
  IC50: > 30 nM

## Cc1cc(NC(=O)c2ccccc2Sc2ccc3c(/C=C/c4ccccn4)n[nH]c3c2)on1
[4]
  % inhibition of the proliferation of HUVEC: 26%
[5]
  % inhibition of the proliferation of HUVEC: 31%

## O=C(NCCN1CCOCC1)c1ccc2c(-c3nc4ccccc4[nH]3)n[nH]c2c1
[1]
  % inhibition of the proliferation of HUVEC: −1%
[2]
  % inhibition of the proliferation of HUVEC: 15%
[3]
  % inhibition of the proliferation of HUVEC: 30%
